Experimental data published in patent publication US20090215883A1, “Pharmaceutical formulation comprising taxane, a solid composition of taxane, a process for preparing said solid composition of taxane, a solubilizing composition of said solid composition of taxane, and a kit for the injectable formulation of taxane” (ERIOCHEM S.A., priority 2006, published 2009).

Experiment: Laboratory tests of direct dissolution in tensoactives
Assay type: physicochemical

## CC(=O)O[C@@]12CO[C@@H]1C[C@H](O)[C@@]1(C)C(=O)[C@H](O)C3=C(C)[C@@H](OC(=O)[C@H](O)[C@@H](NC(=O)OC(C)(C)C)c4ccccc4)C[C@@](O)([C@@H](OC(=O)c4ccccc4)[C@H]21)C3(C)C [trihydrate docetaxel, docetaxel]
Pure polysorbate 80
  Direct dissolution in pure polysorbate 80: cannot be dissolved directly
Tensoactive aqueous solution (aqueous Solutol HS15 for the solid composition), no organic solvent
  Direct dissolution in tensoactive aqueous solution: cannot be dissolved directly
